Assay results: ChEMBL document CHEMBL2016468, “Development of rationally designed DNA N6 adenine methyltransferase inhibitors” (Bioorg Med Chem Lett, 2012)

Assay: Inhibition of Yersinia pestis Dam using oligonucleotide 1 as substrate after 2000 to 3000 sec by micro plate reader based real-time break-light assay

| SMILES | IC50 [µM] |
| --- | --- |
| Nc1ncnc2c1ncn2[C@@H]1O[C@H](CN(CCc2c[nH]c3ccccc23)CC[C@H](N)C(=O)O)[C@@H](O)[C@H]1O | 12.3 |
| Nc1ncnc2c1ncn2[C@@H]1O[C@H](CN(CCCc2c[nH]c3ccccc23)CC[C@H](N)C(=O)O)[C@@H](O)[C@H]1O | 13.1 |
| Nc1ncnc2c1ncn2[C@@H]1O[C@H](CN(CC[C@H](N)C(=O)O)Cc2ccccn2)[C@@H](O)[C@H]1O | > 250 |
| Nc1ncnc2c1ncn2[C@@H]1O[C@H](CSCC[C@H](N)C(=O)O)[C@@H](O)[C@H]1O [S-ADENOSYLHOMOCYSTEINE] | 11.9 |
| Nc1ncnc2c1ncn2[C@@H]1O[C@H](CNCC[C@H](N)C(=O)O)[C@@H](O)[C@H]1O | 84 |
| Nc1ncnc2c1ncn2[C@@H]1O[C@H](CN(CCCc2ccccn2)CC[C@H](N)C(=O)O)[C@@H](O)[C@H]1O | > 250 |
| Nc1ncnc2c1ncn2[C@@H]1O[C@H](CN(CCc2csc3ccccc23)CC[C@H](N)C(=O)O)[C@@H](O)[C@H]1O | 28.9 |
| Nc1ncnc2c1ncn2[C@@H]1O[C@H](CN(CCc2coc3ccccc23)CC[C@H](N)C(=O)O)[C@@H](O)[C@H]1O | 39.2 |
| Nc1ncnc2c1ncn2[C@@H]1O[C@H](CN(CCc2cccc3[nH]ccc23)CC[C@H](N)C(=O)O)[C@@H](O)[C@H]1O | 31.3 |
